The target of one assay is HIS-TGFβR1 T204D (Homo sapiens (Human), UniProt P36897, T204D). Put plainly: HTRF probe displacement assay, HIS-TGFβR1 T204D. It is filed as binding. Particulars: 1 nM HIS-TGFβR1 T204D, 1 hour at room temperature, read-out: TGFBR1T204D IC50. The protocol:
(§1) Compounds were dissolved at 10 mM in dimethylsulfoxide (DMSO) and evaluated at eleven concentrations. IC50 values were derived by non-linear regression analysis.

The target in the next assay is HIS-TGFβR2 WT (Homo sapiens (Human), UniProt P37173). Put plainly: HTRF probe displacement assay, HIS-TGFβR2 WT. It is filed as binding. The settings on record: 1 nM HIS-TGFβR2 WT, 1 hour at room temperature, read-out: TGFBR2WT IC50. The protocol: as §1

The structures appear in SMILES notation.

Chain of HIS-TGFβR2 WT (P37173 23-567): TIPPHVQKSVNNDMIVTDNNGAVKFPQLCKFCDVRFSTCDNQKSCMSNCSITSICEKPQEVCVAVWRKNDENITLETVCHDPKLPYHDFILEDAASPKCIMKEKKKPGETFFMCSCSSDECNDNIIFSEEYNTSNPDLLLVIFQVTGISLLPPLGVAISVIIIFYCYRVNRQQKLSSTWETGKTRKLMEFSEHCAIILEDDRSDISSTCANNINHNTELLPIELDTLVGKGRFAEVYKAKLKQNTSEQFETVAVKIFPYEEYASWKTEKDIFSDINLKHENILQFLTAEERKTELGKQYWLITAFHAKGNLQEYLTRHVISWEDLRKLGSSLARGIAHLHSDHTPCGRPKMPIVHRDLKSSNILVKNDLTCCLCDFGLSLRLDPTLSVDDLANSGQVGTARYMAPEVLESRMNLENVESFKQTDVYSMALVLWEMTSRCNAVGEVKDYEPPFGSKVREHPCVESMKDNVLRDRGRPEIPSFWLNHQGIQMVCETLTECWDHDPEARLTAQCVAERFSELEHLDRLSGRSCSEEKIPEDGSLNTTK
Chain of HIS-TGFβR1 T204D (P36897 34-503 T204D): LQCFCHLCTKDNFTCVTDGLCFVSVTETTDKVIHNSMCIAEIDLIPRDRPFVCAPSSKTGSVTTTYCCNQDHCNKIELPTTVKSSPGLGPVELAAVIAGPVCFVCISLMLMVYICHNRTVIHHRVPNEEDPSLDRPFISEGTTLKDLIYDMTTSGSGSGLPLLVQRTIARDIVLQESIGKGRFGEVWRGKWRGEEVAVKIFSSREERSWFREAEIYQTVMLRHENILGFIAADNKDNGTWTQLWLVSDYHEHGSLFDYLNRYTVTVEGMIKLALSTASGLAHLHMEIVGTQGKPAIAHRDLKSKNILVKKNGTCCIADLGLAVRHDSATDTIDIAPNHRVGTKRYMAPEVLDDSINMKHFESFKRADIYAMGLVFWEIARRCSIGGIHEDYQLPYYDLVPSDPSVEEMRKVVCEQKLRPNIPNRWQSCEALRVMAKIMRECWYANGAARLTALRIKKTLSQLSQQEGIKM

For the compound `NC(=O)c1cnc2ccc(-c3cccnc3-c3ccc(F)cn3)cn12` [Compound 21, 6-(5′-fluoro-[2,2′-bipyridin]-3-yl)imidazo[1,2-a]pyridine-3-carboxamide], the IC50 on HIS-TGFβR1 T204D turned out to be 5 nM.

As for `CCOC(=O)c1cnn2ccc(-c3cccnc3-c3ccc(F)c(C)n3)nc12` [Compound 130, ethyl 5-(5′-fluoro-6′-methyl-[2,2′-bipyridin]-3-yl)pyrazolo[1,5-a]pyrimidine-3-carboxylate], the IC50 at HIS-TGFβR2 WT is greater than 15000 nM; at HIS-TGFβR1 T204D, 14 nM.

For the compound `N#Cc1cnc2ccc(-c3cccnc3-c3ccc(F)cn3)nn12` [Compound 53, 6-(5′-fluoro-[2,2′-bipyridin]-3-yl)imidazo[1,2-b]pyridazine-3-carbonitrile], the IC50 on HIS-TGFβR2 WT is greater than 15000 nM; at HIS-TGFβR1 T204D it was 605 nM.

On to `CS(=O)(=O)Nc1cccc(-c2ncccc2-c2ccc3ncc(C#N)n3c2)n1` [Compound 44, N-(3′-(3-cyanoimidazo[1,2-a]pyridin-6-yl)-[2,2′-bipyridin]-6-yl)methanesulfonamide], for which the IC50 at HIS-TGFβR2 WT was greater than 15000 nM; on HIS-TGFβR1 T204D, 1980 nM.

Turning to `Cc1nc(-c2ncccc2-c2ccc3ncc(C#N)n3n2)ccc1F` [Compound 61, 6-(5′-fluoro-6′-methyl-[2,2′-bipyridin]-3-yl)imidazo[1,2-b]pyridazine-3-carbonitrile], the IC50 at HIS-TGFβR2 WT is greater than 15000 nM; at HIS-TGFβR1 T204D, 32 nM.

For `COc1cccc(-c2ncccc2-c2ccc3ncc(C(N)=O)n3n2)n1` [Compound 51, 6-(6′-methoxy-[2,2′-bipyridin]-3-yl)imidazo[1,2-b]pyridazine-3-carboxamide], the values for the IC50 on HIS-TGFβR2 WT and at HIS-TGFβR1 T204D were greater than 15000 nM and 21 nM, respectively.

`CC(C)c1cccc(-c2ncccc2-c2ccc3ncc(C(N)=O)n3n2)n1` [Compound 64, 6-(6′-isopropyl-[2,2′-bipyridin]-3-yl)imidazo[1,2-b]pyridazine-3-carboxamide]: the IC50 is greater than 15000 nM on HIS-TGFβR2 WT and 563 nM at HIS-TGFβR1 T204D.

As for `CC(=O)Nc1cn2cc(-c3cccnc3-c3cccc(C)n3)ccc2n1` [Compound 76, N-(6-(6′-methyl-[2,2′-bipyridin]-3-yl)imidazo[1,2-a]pyridin-2-yl)acetamide], the IC50 was greater than 15000 nM on HIS-TGFβR2 WT and 1 nM on HIS-TGFβR1 T204D.

For `Cc1cccc(-c2ncccc2-c2ccn3ncc(C#N)c3n2)n1` [Compound 119, 5-(6′-methyl-[2,2′-bipyridin]-3-yl)pyrazolo[1,5-a]pyrimidine-3-carbonitrile], the IC50 was greater than 15000 nM on HIS-TGFβR2 WT and 59 nM on HIS-TGFβR1 T204D.

With `Cc1cccc(-c2ncccc2-c2ccn3ncc(C(=O)NC4COC4)c3n2)n1` [Compound 129, 5-(6′-methyl-[2,2′-bipyridin]-3-yl)-N-(oxetan-3-yl)pyrazolo[1,5-a]pyrimidine-3-carboxamide], the results for the IC50 on HIS-TGFβR2 WT and on HIS-TGFβR1 T204D were greater than 15000 nM and 29 nM, respectively.

Take `Cc1cccc(-c2ncc(N)cc2-c2ccc3ncc(C(=O)O)n3c2)n1` [Compound 99, 6-(5-amino-6′-methyl-[2,2′-bipyridin]-3-yl)imidazo[1,2-a]pyridine-3-carboxylic acid]: the IC50 at HIS-TGFβR1 T204D worked out at 4 nM.

Take `CC(C)c1cccc(-c2ncccc2-c2ccc3ncc(C#N)n3n2)n1` [Compound 63, 6-(6′-isopropyl-[2,2′-bipyridin]-3-yl)imidazo[1,2-b]pyridazine-3-carbonitrile]: the IC50 on HIS-TGFβR2 WT was greater than 15000 nM; on HIS-TGFβR1 T204D, 1950 nM.

Turning to `Cc1cccc(-c2ncccc2-c2ccc3nccnc3c2)n1` [Compound 113, 6-(6′-methyl-[2,2′-bipyridin]-3-yl)quinoxaline], the results for the IC50 at HIS-TGFβR2 WT and on HIS-TGFβR1 T204D were greater than 15000 nM and 9 nM, respectively.

On to `NC(=O)c1cnc2ccc(-c3cccnc3-c3cccc(Cl)n3)cn12` [Compound 46, 6-(6′-chloro-[2,2′-bipyridin]-3-yl)imidazo[1,2-a]pyridine-3-carboxamide], for which the IC50 on HIS-TGFβR2 WT was greater than 15000 nM; at HIS-TGFβR1 T204D it was 0.4 nM.

With `CC(C)(O)c1cccc(-c2ncccc2-c2ccc3ncc(C#N)n3c2)n1` [Compound 41], the figures for the IC50 at HIS-TGFβR2 WT and at HIS-TGFβR1 T204D were greater than 15000 nM and 15000 nM, respectively.

Regarding `COCCNC(=O)c1cnc2ccc(-c3cccnc3-c3cccc(C)n3)cn12` [Compound 70, N-(2-methoxyethyl)-6-(6′-methyl-[2,2′-bipyridin]-3-yl)imidazo[1,2-a]pyridine-3-carboxamide], the IC50 at HIS-TGFβR2 WT was greater than 15000 nM; at HIS-TGFβR1 T204D, 4 nM.

Regarding `NC(=O)c1cnc2ccc(-c3cccnc3-c3cccc(F)n3)cn12` [Compound 37, 6-(6′-fluoro-[2,2′-bipyridin]-3-yl)imidazo[1,2-a]pyridine-3-carboxamide], the IC50 at HIS-TGFβR1 T204D was found to be 4 nM.

For `FC(F)c1cccc(-c2ncccc2-c2ccc3[nH]ncc3c2)n1` [Compound 115, 5-(6′-(difluoromethyl)-[2,2′-bipyridin]-3-yl)-1H-indazole], the figures for the IC50 at HIS-TGFβR2 WT and at HIS-TGFβR1 T204D were greater than 15000 nM and 3 nM, respectively.

For the compound `Cc1cccc(-c2nc(C)ccc2-c2ccc3ncc(C#N)n3c2)n1` [Compound 86, 6-(6,6′-dimethyl-[2,2′-bipyridin]-3-yl)imidazo[1,2-a]pyridine-3-carbonitrile], the IC50 at HIS-TGFβR2 WT was greater than 15000 nM; on HIS-TGFβR1 T204D, 187 nM.

For `O=C(O)c1cnn2ccc(-c3cccnc3-c3cccc(C(F)(F)F)n3)nc12` [Compound 124, 5-(6′-(trifluoromethyl)-[2,2′-bipyridin]-3-yl)pyrazolo[1,5-a]pyrimidine-3-carboxylic acid], the IC50 is greater than 15000 nM on HIS-TGFβR2 WT and 137 nM at HIS-TGFβR1 T204D.

For `CC(=O)Nc1ccnc(-c2cccc(C)n2)c1-c1ccc2ncc(C#N)n2c1` [Compound 100, N-(3-(3-cyanoimidazo[1,2-a]pyridin-6-yl)-6′-methyl-[2,2′-bipyridin]-4-yl)acetamide], the values for the IC50 on HIS-TGFβR2 WT and at HIS-TGFβR1 T204D were greater than 15000 nM and 11100 nM, respectively.

For `N#Cc1cnc2ccc(-c3cccnc3-c3cccc(C4CC4)n3)cn12` [Compound 34, 6-(6′-cyclopropyl-[2,2′-bipyridin]-3-yl)imidazo[1,2-a]pyridine-3-carbonitrile], the IC50 was greater than 15000 nM on HIS-TGFβR2 WT and 19 nM at HIS-TGFβR1 T204D.

Regarding `Cc1cccc(-c2ncccc2-c2ccc3nccn3c2)n1` [Compound 47, 6-(6′-methyl-[2,2′-bipyridin]-3-yl)imidazo[1,2-a]pyridine], the IC50 is greater than 15000 nM on HIS-TGFβR2 WT and 3 nM at HIS-TGFβR1 T204D.

Turning to `NC(=O)c1cnc2ccc(-c3cccnc3-c3cccc(C4CC4)n3)cn12` [Compound 35, 6-(6′-cyclopropyl-[2,2′-bipyridin]-3-yl)imidazo[1,2-a]pyridine-3-carboxamide], the IC50 at HIS-TGFβR2 WT is greater than 15000 nM; on HIS-TGFβR1 T204D, 1 nM.

Regarding `N#Cc1cnn2ccc(-c3cccnc3-c3cccc(C(F)(F)F)n3)nc12` [Compound 121, 5-(6′-(trifluoromethyl)-[2,2′-bipyridin]-3-yl)pyrazolo[1,5-a]pyrimidine-3-carbonitrile], the IC50 on HIS-TGFβR2 WT was greater than 15000 nM; on HIS-TGFβR1 T204D, 854 nM.

With `Cc1nc(-c2ncccc2-c2ccn3ncc(C(=O)O)c3n2)ccc1F` [Compound 131, 5-(5′-fluoro-6′-methyl-[2,2′-bipyridin]-3-yl)pyrazolo[1,5-a]pyrimidine-3-carboxylic acid], the results for the concentration for half-maximal inhibition (IC50) on HIS-TGFβR2 WT and on HIS-TGFβR1 T204D were greater than 15000 nM and 211 nM, respectively.

Take `NC(=O)c1cnc2ccc(-c3cccnc3-c3ccc(C(=O)O)cn3)cn12` [Compound 27, 3′-(3-carbamoylimidazo[1,2-a]pyridin-6-yl)-[2,2′-bipyridine]-5-carboxylic acid]: the IC50 on HIS-TGFβR2 WT was greater than 15000 nM; at HIS-TGFβR1 T204D, 14300 nM.

Consider `CC(=O)Nc1cnc(-c2cccc(C)n2)c(-c2ccc3ncc(C(N)=O)n3c2)c1` [Compound 97, 6-(5-acetamido-6′-methyl-[2,2′-bipyridin]-3-yl)imidazo[1,2-a]pyridine-3-carboxamide], for which the IC50 at HIS-TGFβR1 T204D is 5 nM.

As for `NC(=O)c1cnc2ccc(-c3cccnc3-c3ccccn3)cn12` [Compound 39, 6-([2,2′-bipyridin]-3-yl)imidazo[1,2-a]pyridine-3-carboxamide], the IC50 at HIS-TGFβR1 T204D turned out to be 6 nM.

For `Cc1nc(-c2ncccc2-c2ccc3ncc(C(N)=O)n3c2)ccc1F` [Compound 19, 6-(5′-fluoro-6′-methyl-[2,2′-bipyridin]-3-yl)imidazo[1,2-a]pyridine-3-carboxamide], the IC50 at HIS-TGFβR1 T204D came to 1 nM.

`NC(=O)c1cnc2ccc(-c3cccnc3-c3ccc(F)c(C(F)F)n3)cn12` [Compound 24, 6-(6′-(difluoromethyl)-5′-fluoro-[2,2′-bipyridin]-3-yl)imidazo[1,2-a]pyridine-3-carboxamide]: the half-maximal inhibitory concentration (IC50) at HIS-TGFβR2 WT was greater than 15000 nM.

Regarding `COc1cccc(-c2ncccc2-c2ccc3ncc(C(N)=O)n3c2)n1` [Compound 33, 6-(6′-methoxy-[2,2′-bipyridin]-3-yl)imidazo[1,2-a]pyridine-3-carboxamide], the IC50 on HIS-TGFβR1 T204D is 1 nM.

In the case of `Cc1nc(-c2ncc(F)cc2-c2ccc3ncc(C(N)=O)n3c2)ccc1F` [Compound 85, 6-(5,5′-difluoro-6′-methyl-[2,2′-bipyridin]-3-yl)imidazo[1,2-a]pyridine-3-carboxamide], the IC50 on HIS-TGFβR1 T204D worked out at 2 nM.

For the compound `NC(=O)c1cnc2ccc(-c3cccnc3-c3cc(F)ccn3)cn12` [Compound 22, 6-(4′-fluoro-[2,2′-bipyridin]-3-yl)imidazo[1,2-a]pyridine-3-carboxamide], the half-inhibitory concentration (IC50) at HIS-TGFβR1 T204D was found to be 5 nM.

Take `Cc1cccc(-c2ncc(F)cc2-c2ccc3ncc(C(N)=O)n3c2)n1` [Compound 82, 6-(5-fluoro-6′-methyl-[2,2′-bipyridin]-3-yl)imidazo[1,2-a]pyridine-3-carboxamide]: the IC50 on HIS-TGFβR1 T204D was 1 nM.

For `CCc1cccc(-c2ncccc2-c2ccc3ncc(C#N)n3c2)n1` [Compound 30, 6-(6′-ethyl-[2,2′-bipyridin]-3-yl)imidazo[1,2-a]pyridine-3-carbonitrile], at HIS-TGFβR2 WT, the half-maximal inhibitory concentration (IC50) was greater than 15000 nM.

With `Cc1cccc(-c2ncc(N)cc2-c2ccc3ncc(C(N)=O)n3c2)n1` [Compound 98, 6-(5-amino-6′-methyl-[2,2′-bipyridin]-3-yl)imidazo[1,2-a]pyridine-3-carboxamide], the IC50 at HIS-TGFβR1 T204D came out at 2 nM.

The values above are taken from patent US9981944B2, “GDF-8 inhibitors” (Rigel Pharmaceuticals, Inc., priority 2015, dated 2018).
